Results: article PMC8874959 (Viruses, 2022)
Read-outs that look alike come from different tables or passages of the source.

What was measured:
[1] = test system: SARS-CoV-2 D614G
[2] = test system: SARS-CoV-2 D614G; remark: listed apart in the source

Row | Structure (SMILES) | EC50 [1] [nM] | EC90 [1] [nM] | EC50 [2] [nM] | EC90 [2] [nM]
1 | CCN(CC)CCCC(C)Nc1ccnc2cc(Cl)ccc12 (centres unmarked) [Chloroquine] | 1100 ± 70 | 3500 ± 800 | > 10000 | > 10000
2 | OC(c1cc(C(F)(F)F)nc2c(C(F)(F)F)cccc12)C1CCCCN1 (centres unmarked) [Mefloquine] | 600 ± 30 |  |  | 
